Experimental data as given in article PMC12057046, “Elucidation of short linear motif-based interactions of the MIT and rhodanese domains of the ubiquitin-specific protease 8” (Biology Direct, 2025).

molecular target: T1, USP8 Rhod domain (Homo sapiens, UniProt P40818); assay: Peptide-phage display-based deep mutational scanning (DMS), USP8 Rhod domain; format: binding; details: PSSM, library USP8_DMS, days 2,3; position 7
T1 construct: USP8 Rhod (174–317) (UniProt: P40818); GST (cleaved yes); made in house; host or cells: Escherichia coli BL21-Gold (DE3)
T1 sequence (P40818 174-317): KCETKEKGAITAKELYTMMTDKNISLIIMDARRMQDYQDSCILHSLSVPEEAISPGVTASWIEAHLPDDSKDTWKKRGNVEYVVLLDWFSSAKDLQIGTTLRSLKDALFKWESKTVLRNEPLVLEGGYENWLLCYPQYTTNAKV
Experimental: Four rounds of phage selections were carried out using the second generation human disorderome library or the constructed deep mutational scanning library. At least three individual replicates were used for each bait protein. 10 µg of GST-tagged proteins or GST control (diluted in PBS from the stock of proteins kept in the purification elution buffer) were immobilized in 100 µL PBS on a 96-well MaxiSorp (Nunc) plate overnight at 4 °C. The plates were incubated with blocking buffer (with 0.5% BSA in PBS) for 1 h at 4 °C followed by washing with 0.05% Tween 20 in PBS four times. The naïve phage library (10^11 CFU) was diluted in 1/5th volume PEG/NaCl (20% PEG-8000, 0.4 M NaCl) and 1X PBS, incubated on ice for 10 min and centrifuged at 10,000 [drawing 3] g for 10 min. The pellet was resuspended in the volume of PBS (100 µL/ well). The GST-coated control plate was incubated with 100 µL library per well in PBS for 1 h at 4 °C to remove non-specific binders. The supernatant was transferred to the target wells and incubated for 2 h at 4 °C. The wells were washed five times with 0.05% Tween 20 in PBS and the bound phages were eluted with 100 µL per well log-phase E. coli OmniMAX by incubating at 37° C while shaking. After 30 min, M13KO7 helper phages were added and incubated for an additional 45 min. The bacterial cultures were transferred to 1 mL 2YT supplemented with 100 µg/mL carbenicillin, 30 µg/mL kanamycin and 0.3 mM IPTG and grew overnight at 37 °C while shaking. The following day the cultures were centrifuged for 10 min at 2,000 [drawing 4] g, 4 °C. 1/10th volume of 10 [drawing 5] PBS was added to adjust the pH and heated at 65 °C for 10 min. The phage pools from each round were used as in-phages for the next round of selections.
The samples were prepared for NGS as previously described. […] The PCR products were normalized with 25 µL Mag-bind Total Pure NGS beads (Omega Biotek) and 10 µL of each eluted sample (Qiagen Elution Buffer) was pooled and cleaned-up with a PCR purification kit (Qiagen). The PCR product was confirmed by 2% agarose electrophoresis and the band was extracted with QIAquick Gel extraction Kit (Qiagen) and eluted with 30 µL TE buffer. The dsDNA was quantified using QuantiT PicoGreen dsDNA Assay Kit (Thermo Fisher) and sent for NGS (Illumina MiSeq v3, 1 × 150 bp read setup, 20% PhiX, NGI SciLifeLab facility, Sweden). The NGS data were demultiplexed, adapter regions were trimmed and sequences with an average quality of at least 20 were translated to peptide sequences. The NGS data were analysed using custom Python scripts. The total read NGS counts for each selection experiment of each peptide sequence were compiled and annotated in PepTools (https://slim.icr.ac.uk/tools/peptools/). Since ProP-PD is in essence a competition assay, the possibility of the input phage library influencing the selection outcome was explored. […] Pearson correlation coefficient and p-value were calculated using Python’s SciPy library.

Substance	enrichment_relative_to_wt at position 7 (wt G)	proportion of amino acid at position 7 (wt G)
KIAA1614_Q5VZ46_569_584 G7K (MERVLGKLSSPLRLLP; peptide 569-584; UniProt Q5VZ46 569-584, looked up, variant G7K)	-96	0.000161
KIAA1614_Q5VZ46_569_584 G7R (MERVLGRLSSPLRLLP; UniProt Q5VZ46 569-584, looked up, variant G7R)	-19	0.000822
KIAA1614_Q5VZ46_569_584 G7D (MERVLGDLSSPLRLLP; peptide 569-584; UniProt Q5VZ46 569-584, looked up, variant G7D)	17	0.26

same assay, conditions: PSSM, library USP8_DMS, days 2,3; position 10

Substance	enrichment_relative_to_wt at position 10 (wt S)	proportion of amino acid at position 10 (wt S)
KIAA1614_Q5VZ46_569_584 S10H (MERVLGGLSHPLRLLP; UniProt Q5VZ46 569-584, looked up, variant S10H)	-1.37	0.41

same assay, conditions: ProP-PD DMS, bait USP8_Rhodanese__P40818_174_317; pair wild-type GMERVLGGLSSPLRLL (wt_00013) vs mutant; positive where wild-type fraction is higher, negative where mutant fraction is higher

Substance	hit_pair_ratio
GMERVLGGRSSPLRLL	160.99
GMERVLGGLSSPLKLL	5.73

Continued, values first:

hit_pair_ratio	Substance
160.99	GMERVLGGLSSPLRGL
59.13	GMERVLGGLSSPLQLL
160.99	GMERVLGGLSSRLRLL
321.97	GMERVLGGLSSLLRLL
26.83	GMERVLGGLSSPLRLQ

same assay, conditions: ProP-PD pairs, bait USP8_Rhodanese__P40818_174_317; wild-type/mutant pair, wild type KIAA1614 569-584 GMERVLGGLSSPLRLL (wt_00013)

Substance	hit_pair_ratio
GMENVLGGLSSPLRLL	107.32
GHERVLGGLSSPLRLL	-7.73
GMERVLIGLSSPLRLL	3.89
GMERVLGGASSPLRLL	1.62
GVERVLGGLSSPLRLL	-8.18

Now from value to substance:

hit_pair_ratio	Substance
10.06	YMERVLGGLSSPLRLL
18.46	GMERVLRGLSSPLRLL
-3.38	GMERVLQGLSSPLRLL
-3.21	GMERVIGGLSSPLRLL
321.97	GMERVLGTLSSPLRLL
321.97	GMERVSGGLSSPLRLL
-43.42	GMERVLTGLSSPLRLL
-80.43	GMERVLGGESSPLRLL
321.97	GMETVLGGLSSPLRLL
29.56	GMERVGGGLSSPLRLL

same assay, conditions: bait USP8_Rhodanese__P40818_174_317; wild-type/mutant pair ratio of averaged fractions; negative values where mutant fraction is higher

Substance	hit_pair_ratio
GLALWEAKMKQLAEHA	25.68
GLALWEAKMKQKAERA	1107.01
GLALWEAKMKQLAARA	114.71
GLALWEAKMKQLAMRA	7.80
GLALWEAKMKQLALRA	13.05
GLALWEAKMKQLAERQ	3.47
GLALWEAKMKQLIERA	369.00
GLALWEAKMKQLAEKA	12.41

Further lines, results first:

hit_pair_ratio	Substance
-10.12	GLALWEAKMKQLAEYA
553.50	GLALWEAKMKVLAERA
26.20	GLALWEAKMLQLAERA
73.80	GLALWEAKMKQLANRA
5.73	GLALWEAKMKGLAERA
19.96	GLALWEAKMIQLAERA
417.62	GLALWEAKMKQAAERA
-1.95	GLALWEAKMKQLAETA

same assay, conditions: wild type/mutant pair; bait USP8_Rhodanese__P40818_174_317; vs hit_library_peptide_wt GLALWEAKMKQLAERA; negative where mutant fraction exceeds wild type; ProP-PD pairs (sheet S7.B)

Substance	hit_pair_ratio
GLALWEHKMKQLAERA	2.05
GLILWEAKMKQLAERA	1107.01
GLVLWEAKMKQLAERA	27.71
GLALWEAKLKQLAERA	1107.01
GLALWEAKSKQLAERA	-2.49
GLALWSAKMKQLAERA	21.71
GVALWEAKMKQLAERA	-1.59
GLALWEMKMKQLAERA	20.50

Now from value to substance:

hit_pair_ratio	Substance
238.03	KLALWEAKMKQLAERA
1107.01	GLAKWEAKMKQLAERA
1107.01	RLALWEAKMKQLAERA
-19.47	GLALWEAKMNQLAERA
61.66	GLALSEAKMKQLAERA
553.50	GLALKEAKMKQLAERA
2.15	GLALWEAKWKQLAERA
12.82	GLARWEAKMKQLAERA
